Values after ≈ are worked out from the molar mass of the structure shown. Read-outs that look alike come from different tables or passages of the source.
Key:
[1] = biological target: S. aureus topoisomerase IV; details: read-out: IC50 for S. aureus topoisomerase IV (internal standard value); value stated in the supplementary method, no reference given; cited from earlier work
E. coli DNA gyrase = E. coli DNA gyrase (Escherichia coli, UniProt P0AES6); test: DNA gyrase supercoiling assay; format: biochemical
Method: 4.2.3. Determination of Inhibitory Activities on E. coli DNA Gyrase.
All the final compounds were tested for E. coli DNA gyrase inhibitory activity in a supercoiling assay. Activities were determined on streptavidin -coated 96-well microtiter plates from Thermo scientific Pierce. First, the plates were rehydrated with buffer (20 mM Tris -HCl with pH 7.6, 0.01% […]
immobilized. After washing off the unbound oligonucleotide, the enzyme test was performed. The reaction volume of 30 μL in buffer (35 mM Tris-HCl with pH 7.5, 4 mM MgCl 2, 24 mM KCl, 2 […]
1.5 U of DNA gyrase from E. coli or S. aureus, 0.75 μg of relaxed pNO1 plasmid, and 3 μL solution of the inhibitor in 1 0% DMSO and 0.008% Tween 20. Reaction solutions were incubated at 37 °C […]
for 30 min. After that, the TF buffer (50 mM NaOAc with pH 5.0, 50 mM NaCl and 50 mM MgCl2) was added to terminate the enzymatic reaction. After additional incubation for 30 min at rt, during which biotin-oligonucleotide-plasmid triplex was formed, the unbound plasmid was washed off using TF buffer and SybrGOLD in T10 buffer (10 mM Tris HCl wit h pH 8.0 and 1 mM EDTA) was added. The fluorescence was measured with a microplate reader (BioTek Synergy H4, excitation: 485 nm, emission: 535 nm). […]
tested compounds. GraphPad Prism software was used to calculate the IC50 values. The result is given as the average value of three independent measurements. […]

MCF-10A cells = details: 50 µM
A-549 cells = test: Antiproliferative MTT assay
Excerpt: (§8) Dose-response assays determined the IC50 values for the novel compounds. We derived the reported data from a minimum of two separate experiments, each consisting of three repetitions per concentration.
Assay for antiproliferative effect

MCF-7 cells = test: Antiproliferative MTT assay
Excerpt: as §8
Assay for antiproliferative effect

Panc-1 cells = test: Antiproliferative MTT assay
Excerpt: as §8
Assay for antiproliferative effect

HT-29 cells = test: Antiproliferative MTT assay
Excerpt: as §8
Assay for antiproliferative effect

[2] = tested on: four cancer cell lines (A-549, MCF-7, Panc-1, HT-29); test: Antiproliferative MTT assay, average over four cancer cell lines; details: for GI50: read-out: Antiproliferative activity, Average (GI50)
Excerpt: as §8
Assay for antiproliferative effect

B. subtilis = test: MIC by twofold serial dilution; format: cell-based, Bacillus subtilis (ATCC 6051)
Method: (§1) The antibacterial efficacy of compounds 11b, 11e, and 12b was evaluated against Gram-positive bacteria (S. aureus and B. subtilis) and Gram-negative bacteria (E. coli and P. aeruginosa). Table 5 presents the MICs (nM) of these compounds against the evaluated bacteria, utilizing ciprofloxacin as the reference drug, determined through a twofold serial dilution approach on a 96-well microtiter plate ([Frejat F. O. et al., 2022]).
as §1, with “The” for “Table 5 presents the”, “the tested” for “these”, “bacteria were” for “bacteria, utilizing ciprofloxacin as the reference drug,”, “2022]). See Appendix A for more details.” for “2022]).”
(§2) 4.2. Antimicrobial activity
(§3) 4.2.1. Organisms and culture conditions […]
(§4) 4.2.2. Minimum inhibitory concentration assay
(§5) In 96-well microtiter plates and […] of fresh bacterial culture of a single McFarland unit overnight, a double serial dilution of each compound […] in sterile standard saline were prepared to every single source well. Ciprofloxacin antibiotic (5 mg / mL-1) and normal saline were included as standard reference in each assay. The plates were incubated at 37 0C overnight.
(§6) As an indicator of bacterial growth, […] of p -iodonitrotetrazolium violet (INT) was added to each well and incubated at 37 0C for 30 min. MIC values are recorded as the lowest concentration […]
(§7) tetrazolidium salt acts as an electron accepter and is reduced to a red colored formazan product by biological activity organisms. Where bacterial growth was inhibited, the solution in the well remained clear after incubation with INT. […]

S. aureus = test: MIC by twofold serial dilution; format: cell-based, Staphylococcus aureus (ATCC 12600); details: Staphylococcus aureus; Gram-positive; read-out: Minimum inhibitory concentration (MIC), S. aureus
Method: as §1
as §1, with “The” for “Table 5 presents the”, “the tested” for “these”, “bacteria were” for “bacteria, utilizing ciprofloxacin as the reference drug,”, “2022]). See Appendix A for more details.” for “2022]).”
as §2, §3, §4, §5, §6, §7

E. coli = test: MIC by twofold serial dilution; format: cell-based, Escherichia coli (ATCC 11775); details: Escherichia coli; Gram-negative; read-out: Minimum inhibitory concentration (MIC), E. coli
Method: as §1
as §1, with “The” for “Table 5 presents the”, “the tested” for “these”, “bacteria were” for “bacteria, utilizing ciprofloxacin as the reference drug,”, “2022]). See Appendix A for more details.” for “2022]).”
as §2, §3, §4, §5, §6, §7

P. aeruginosa = test: MIC by twofold serial dilution; format: cell-based, Pseudomonas aeuroginosa (ATCC 10145); details: Pseudomonas aeruginosa; Gram-negative; read-out: Minimum inhibitory concentration (MIC), P. aeruginosa
Method: as §1
as §1, with “The” for “Table 5 presents the”, “the tested” for “these”, “bacteria were” for “bacteria, utilizing ciprofloxacin as the reference drug,”, “2022]). See Appendix A for more details.” for “2022]).”
as §2, §3, §4, §5, §6, §7

in vitro = details: human, MCF-10A mammary gland epithelial cells (normal cell line)
EGFR = EGFR (Homo sapiens, UniProt P00533); test: EGFR-TK inhibitory assay
Sequence of EGFR (P00533 669-1210): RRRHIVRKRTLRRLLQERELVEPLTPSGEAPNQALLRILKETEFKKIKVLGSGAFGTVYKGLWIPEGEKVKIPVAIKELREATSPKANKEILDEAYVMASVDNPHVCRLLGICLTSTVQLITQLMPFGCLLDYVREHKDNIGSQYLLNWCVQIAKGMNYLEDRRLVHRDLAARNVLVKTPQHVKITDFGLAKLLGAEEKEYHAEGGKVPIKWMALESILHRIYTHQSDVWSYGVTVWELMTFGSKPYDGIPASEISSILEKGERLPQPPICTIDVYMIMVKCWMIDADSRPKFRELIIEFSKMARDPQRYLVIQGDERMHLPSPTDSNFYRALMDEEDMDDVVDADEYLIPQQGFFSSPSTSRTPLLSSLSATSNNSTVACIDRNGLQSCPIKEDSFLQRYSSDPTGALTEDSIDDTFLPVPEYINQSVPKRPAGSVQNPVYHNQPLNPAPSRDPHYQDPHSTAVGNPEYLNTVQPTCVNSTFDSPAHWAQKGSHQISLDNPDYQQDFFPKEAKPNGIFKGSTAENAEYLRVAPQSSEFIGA
Method: Baculoviral expression vectors including pBlueBacHis2B and pFASTBacHTc were used
5ʹ upstream to the EGFR sequence comprised a sequence that encoded (His)6. Sf-9 cells were infected for 72h for protein expression. The pellets of Sf-9 cells were solubilized in a buffer containing sodium vanadate (100 μM), aprotinin (10 μg/mL), triton (1%), HEPES buffer(50mM), ammonium molybdate (10 μM), benzamidine HCl (16 μg/mL), NaCl (10 mM),leupeptin (10 μg/mL) and pepstatin (10 μg/mL) at 0°C for 20 min at pH 7.4, followed by centrifugation for 20 min. To eliminate the nonspecifically bound material, a Ni-NTA super flow packed column was used to pass through and wash the crude extract supernatant first with 10mM and then with 100 mM imidazole. Histidine-linked proteins were first eluted with 250 and then with 500 mM imidazole subsequent to dialysis against NaCl (50 mM), HEPES (20 mM), glycerol (10%) and 1 μg/mL each of aprotinin, leupeptin and pepstatin for 120 min. The purification was performed either at 4 °C or on ice. To record autophosphorylation level, EGFR kinase assay was carried out on the basis of DELFIA/Time-Resolved Fluorometry. The compounds were first
dissolved in DMSO absolute, subsequent to dilution to appropriate concentration using HEPES
(25 mM) at pH 7.4. Each compound (10 μL) was incubated with recombinant enzyme (10 μL, 5
ng for EGFR, 1:80 dilution in 100 mM HEPES) for 10 min at 25 °C, subsequent to the addition of
5X buffer (10 μL, containing 2 mM MnCl2, 100 μM Na3VO4, 20 mM HEPES and 1 mM DTT)
and ATP-MgCl2 (20 μL, containing 0.1 mM ATP and 50 mM MgCl2) and incubation for 1h. The
negative and positive controls were included in each plate by the incubation of enzyme either with
or without ATP-MgCl2. The liquid was removed after incubation and the plates were washed
thrice using a wash buffer. The Europium-tagged antiphosphotyrosine antibody (75 μL, 400 ng)
(§9) was added to each well followed by incubation of 1h and then washing of the plates using buffer.
(§10) The enhancement solution was added to each well and the signal was recorded at excitation and
(§11) The autophosphorylation percentage inhibition by compounds was calculated using the following equation:
calculated. The majority of signals detected by antiphosphotyrosine antibody were from EGFR because the enzyme preparation contained low impurities.

VEGFR-2 = VEGFR-2 (Homo sapiens, UniProt P35968); test: VEGFR-2 inhibitory assay
Sequence of VEGFR-2 (P35968 20-1356): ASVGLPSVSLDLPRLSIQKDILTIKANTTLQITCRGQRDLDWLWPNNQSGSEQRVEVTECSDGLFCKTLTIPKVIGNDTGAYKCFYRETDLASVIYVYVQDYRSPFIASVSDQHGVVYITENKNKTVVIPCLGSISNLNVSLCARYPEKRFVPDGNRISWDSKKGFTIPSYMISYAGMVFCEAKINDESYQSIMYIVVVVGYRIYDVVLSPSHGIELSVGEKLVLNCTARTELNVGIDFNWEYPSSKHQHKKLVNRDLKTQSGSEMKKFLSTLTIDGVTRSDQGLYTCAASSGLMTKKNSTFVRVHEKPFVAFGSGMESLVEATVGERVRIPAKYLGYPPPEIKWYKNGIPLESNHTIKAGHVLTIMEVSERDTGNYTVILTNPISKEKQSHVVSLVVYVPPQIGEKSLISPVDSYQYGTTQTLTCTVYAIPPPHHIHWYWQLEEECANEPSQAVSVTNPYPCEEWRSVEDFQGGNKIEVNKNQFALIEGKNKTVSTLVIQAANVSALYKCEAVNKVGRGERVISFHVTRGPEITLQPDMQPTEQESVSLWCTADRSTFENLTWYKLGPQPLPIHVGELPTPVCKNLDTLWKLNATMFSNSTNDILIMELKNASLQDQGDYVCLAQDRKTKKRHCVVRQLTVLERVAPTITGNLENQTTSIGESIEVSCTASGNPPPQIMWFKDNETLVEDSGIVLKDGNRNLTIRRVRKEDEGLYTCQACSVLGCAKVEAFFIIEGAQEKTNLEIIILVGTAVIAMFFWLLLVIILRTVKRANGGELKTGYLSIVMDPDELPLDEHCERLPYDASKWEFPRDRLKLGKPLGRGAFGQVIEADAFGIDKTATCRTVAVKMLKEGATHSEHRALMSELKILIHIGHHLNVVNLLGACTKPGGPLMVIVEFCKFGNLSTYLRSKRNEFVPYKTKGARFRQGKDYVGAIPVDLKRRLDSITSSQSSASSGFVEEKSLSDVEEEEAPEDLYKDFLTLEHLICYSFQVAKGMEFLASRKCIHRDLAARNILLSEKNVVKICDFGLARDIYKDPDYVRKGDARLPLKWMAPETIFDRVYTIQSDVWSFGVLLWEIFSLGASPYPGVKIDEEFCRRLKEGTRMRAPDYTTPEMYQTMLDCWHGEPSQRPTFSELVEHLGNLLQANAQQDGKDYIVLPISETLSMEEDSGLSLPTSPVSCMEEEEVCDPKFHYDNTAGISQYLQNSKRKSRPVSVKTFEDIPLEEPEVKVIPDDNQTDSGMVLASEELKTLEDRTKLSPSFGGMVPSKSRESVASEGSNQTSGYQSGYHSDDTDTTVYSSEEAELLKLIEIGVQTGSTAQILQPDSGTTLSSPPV
Method: The outcomes are presented as IC50 values.
as §9, §10, §11
Prepare all the solutions using autoclaved, deionized water and analytical grade reagents.
and store all the reagents at room temperature (unless indicated otherwise).
solution, add 5 mL ultra-pure water; 1×Kinase Assay Buffer: add 25 mL HEPES solution (1 M),
water, adjust pH to 7.5 and constant volume to 500 mL using ultrapure water; 4×Stop solution (40
mM): Mix 0.8 mL of the foregoing EDTA solution, 1 mL 10×Detection Buffer and 8.2 mL ultra-
pure water; 1×Detection Buffer: Mix 1 mL 10×Detection Buffer with 9 mL water; 4×VEGFR
μM) was added to 624 μL 1×Kinase Assay Buffer and mixed; 4×ULight™-labeled JAK1
(substrate) (200 nM, 25 times diluted): 24 μL ULight™-labeled JAK1 (mother liquor
concentration 5 μM) was added to 576 μL 1×Kinase Assay Buffer and mixed; 4×ATP Solution
(40 μM, 250 times diluted): add 3 μL ATP solution (10 mM) to 747 μL 1×Kinase Assay Buffer
2×substrate/ATP Mix: 560 μL foregoing 4×ULight™-labeled JAK1 and 560 μL 4×ATP solution
and mixed (prepared before use). The assays used an ULight-labeled peptide substrate and a
Europium-W1024-labeled antiphosphotyrosine antibody. The VEGFR-2 was purchased from
Carna Biosciences, Inc. (New York, USA). The 384-well plates were obtained from PerkinElmer.
5 μL 2×VEGFR-2 kinase solution (0.5 nM)
was added to 384-well plates homogeneous mixing and pre-reaction at room temperature for 30 min. Next, 2.5 μL 4×Ultra ULightTM-JAK-1(Tyr1023) Peptide (200 nM)/ATP (40 μM) was added to the corresponding wells of a 384-well plate. Negative control: 2.5 μL/well 4×substrate/ATP mixture and 7.5 μL 1×kinase assay buffer in 384-well plate well. Positive control:
μL/well 2×VEGFR-2 kinase solution was added to the 384-well plate, The final concentration of DMSO in the mixing system was 4%. After incubation at room temperature and dark for 60 min, 5 μL 4×stop solution was added to corresponding wells to react for 5 min and then 5 μL 4×detection mix was added to the corresponding wells of a 384-well plate. The mixture was centrifugally mixed and stayed for 60 min at room temperature for color development. The plate was read using a Envision plate reader. The inhibition rate (%) = (positive well reading-compound well reading)/(positive well reading-negative well reading)×100. The corresponding IC50 values were calculated using GraphPad Prism 5.0.

Compound: CO[C@@H]1[C@@H](OC(N)=O)[C@@H](O)[C@H](Oc2ccc3c(O)c(NC(=O)c4ccc(O)c(CC=C(C)C)c4)c(=O)oc3c2C)OC1(C)C [Novobiocin]
- IC50 [1]: 26700 nM

Compound: (E)-3-(2-((5-(3-(4-Methoxyphenyl)acryloyl)-4-methylthiazol-2-yl)thio) acetyl)-2H-chromen-2-one [Compound 11c]
- RA (residual activity of the enzyme), E. Coli DNA gyrase (E. coli DNA gyrase; at 1 μM of compound): 68%
- Cell viability % (MCF-10A cells): 90%
- IC50 (A-549 cells; read-out: Antiproliferative activity IC50 ± SEM, A-549, lung cancer A-549, MTT): 52 ± 4 nM
- IC50 (MCF-7 cells; read-out: Antiproliferative activity IC50 ± SEM, MCF-7, breast cancer MCF-7, MTT): 56 ± 4 nM
- IC50 (Panc-1 cells; read-out: Antiproliferative activity IC50 ± SEM, Panc-1, pancreatic cancer Panc-1, MTT): 54 ± 4 nM
- IC50 (HT-29 cells; read-out: Antiproliferative activity IC50 ± SEM, HT-29, colon cancer HT-29, MTT): 57 ± 4 nM
- Fold less potent than compound 11f (GI50) [2]: twofold
- GI50 ([2]; average IC50 over the four cancer cell lines): 55 nM

Compound: Cc1nc(SCC(=O)c2cc3cc(Br)ccc3oc2=O)sc1C(=O)/C=C/c1ccc(Cl)cc1 [Compound 11e, (E)-6-Bromo-3-(2-((5-(3-(4-chlorophenyl)acryloyl)-4-methylthiazol-2-yl)thio)acetyl)-2H-chromen-2-one]
- IC50 (E. coli DNA gyrase): 190 ± 13 nM
- Fold less efficient than ciprofloxacin (MIC), B. subtilis (B. subtilis): 2.2 fold
- MIC (B. subtilis; Bacillus subtilis, Gram-positive, read-out: Minimum inhibitory concentration (MIC), B. subtilis): 0.022 ± 0.001 µM (≈ 0.0123 µg/mL)
- MIC (S. aureus): 0.027 ± 0.001 µM (≈ 0.0151 µg/mL)
- MIC (E. coli): 0.048 ± 0.003 µM (≈ 0.0269 µg/mL)
- MIC (P. aeruginosa): 0.053 ± 0.003 µM (≈ 0.0297 µg/mL)
- viability at 96 h, 50 µM (in vitro): 91%
- IC50 (EGFR): 89 ± 4 nM
- IC50 (VEGFR-2): 4900 ± 30 nM
- IC50 (A-549 cells; Homo sapiens, A549, read-out: Antiproliferative activity IC50 ± SEM, A-549): 37 ± 2 nM
- IC50 (MCF-7 cells; Homo sapiens, MCF7, read-out: Antiproliferative activity IC50 ± SEM, MCF-7): 43 ± 2 nM
- IC50 (Panc-1 cells; Homo sapiens, PANC-1, read-out: Antiproliferative activity IC50 ± SEM, Panc-1): 40 ± 2 nM
- IC50 (HT-29 cells; Homo sapiens, HT-29, read-out: Antiproliferative activity IC50 ± SEM, HT-29): 42 ± 2 nM
- Fold less potent than compound 11f (GI50) [2]: 1.5 fold
- GI50 ([2]; Homo sapiens): 41 nM

— PMC12088962, “Design, synthesis, and biological investigation of new thiazole-based derivatives as multi-targeted inhibitors endowed with antiproliferative, antioxidant, and antibacterial properties” (Frontiers in Chemistry, 2025)
